# From patent US10722512B2, “Combinations of histone deacetylase inhibitors and either HER2 inhibitors or PI3K inhibitors” (Acetylon Pharmaceuticals, Inc., priority 2013, dated 2020)
# Tests used:
# Format in all cases: cell-based
# MX-1 = assay: Breast cancer cell viability, 48 hours, MTA assay; conditions: 48 hours; for IC50: Homo sapiens, MX1, MX-1, single agent, read-out: IC50; for Synergy: MX-1, combination with cmpd A, Chou-Talalay CI
# From the text: (§1) Cell viabilities were used to calculate “Fraction Affected” (Fa) and “Combination Index” (CI) values using the Chou-Talalay method. Any combination with a CI value<0.70 at a Fa value between 0.25 and 0.75 was defined as positive synergy.
# MDA-MB-468 = assay: Breast cancer cell viability, 48 hours, MTA assay; conditions: 48 hours; for IC50: Homo sapiens, MDA-MB-468, single agent, read-out: IC50; for Synergy: MDA-MB-468, combination with cmpd A, Chou-Talalay CI
# From the text: as §1
# MDA-MB-361 = assay: Breast cancer cell viability, 48 hours, MTA assay; conditions: 48 hours; for IC50: Homo sapiens, MDA-MB-361, single agent, read-out: IC50
# From the text: as §1
# HCC1937 = assay: Breast cancer cell viability, 48 hours, MTA assay; conditions: 48 hours; for Synergy: HCC1937, combination with cmpd A, Chou-Talalay CI; for IC50: Homo sapiens, HCC1937, single agent, read-out: IC50
# From the text: as §1
# HCC38 = assay: Breast cancer cell viability, 48 hours, MTA assay; conditions: 48 hours; for Synergy: HCC38, combination with cmpd A, Chou-Talalay CI; for IC50: Homo sapiens, HCC38, single agent, read-out: IC50
# From the text: as §1
# BT-549 = assay: Breast cancer cell viability, 48 hours, MTA assay; conditions: 48 hours; for Synergy: BT-549, combination with cmpd A, Chou-Talalay CI; for IC50: Homo sapiens, BT-549, single agent, read-out: IC50
# From the text: as §1
# SK-BR-3 = assay: Breast cancer cell viability, 48 hours, MTA assay; conditions: 48 hours; for IC50: Homo sapiens, SK-BR-3, single agent, read-out: IC50; for Synergy: SK-BR-3, combination with cmpd A, Chou-Talalay CI
# From the text: as §1
# MDA-MB-231 = assay: Breast cancer cell viability, 48 hours, MTA assay; conditions: 48 hours; for IC50: Homo sapiens, MDA-MB-231, single agent, read-out: IC50; for Synergy: MDA-MB-231, combination with cmpd A, Chou-Talalay CI
# From the text: as §1
# ZR-75-1 = assay: Breast cancer cell viability, 48 hours, MTA assay; conditions: 48 hours; for IC50: Homo sapiens, ZR-75-1, single agent, read-out: IC50; for Synergy: ZR-75-1, combination with cmpd A, Chou-Talalay CI
# From the text: as §1
# T-47D* = assay: Breast cancer cell viability, 48 hours, MTA assay; conditions: T-47D*, 48 hours; for IC50: Homo sapiens, T47D, single agent, read-out: IC50; for Synergy: combination with cmpd A, Chou-Talalay CI
# From the text: as §1
# Bcap-37 = assay: Breast cancer cell viability, 48 hours, MTA assay; conditions: 48 hours; for Synergy: Bcap-37, combination with cmpd A, Chou-Talalay CI; for IC50: Homo sapiens, Bcap37, Bcap-37, single agent, read-out: IC50
# From the text: as §1
# MDA-MB-436 = assay: Breast cancer cell viability, 48 hours, MTA assay; conditions: 48 hours; for IC50: Homo sapiens, MDA-MB-436, single agent, read-out: IC50
# From the text: as §1
# BT474 = assay: Breast cancer cell viability, 48 hours, MTA assay; conditions: 48 hours; for Synergy: BT474, combination with cmpd A, Chou-Talalay CI; for IC50: Homo sapiens, BT-474, BT474, single agent, read-out: IC50
# From the text: as §1
# Hs578T = assay: Breast cancer cell viability, 48 hours, MTA assay; conditions: Hs578T, 48 hours; for IC50: Homo sapiens, Hs-578T, single agent, read-out: IC50; for Synergy: combination with cmpd A, Chou-Talalay CI
# From the text: as §1
# MCF-7 = assay: Breast cancer cell viability, 48 hours, MTA assay; conditions: 48 hours; for IC50: Homo sapiens, MCF7, MCF-7, single agent, read-out: IC50; for Synergy: MCF-7, combination with cmpd A, Chou-Talalay CI
# From the text: as §1
# MDA-MB-453 = assay: Breast cancer cell viability, 48 hours, MTA assay; conditions: 48 hours; for IC50: Homo sapiens, MDA-MB-453, single agent, read-out: IC50; for Synergy: MDA-MB-453, combination with cmpd A, Chou-Talalay CI
# From the text: as §1
# [1] = tested on: Her2+ breast cancer cells
Compound,IC50 (MX-1) [nM],Synergy (MX-1),IC50 (MDA-MB-468) [nM],Synergy (MDA-MB-468),IC50 (MDA-MB-361) [nM],Synergy (HCC1937),IC50 (HCC1937) [nM],Synergy (HCC38),IC50 (HCC38) [nM],Synergy (BT-549),IC50 (BT-549) [nM],IC50 (SK-BR-3) [nM],Synergy (SK-BR-3),IC50 (MDA-MB-231) [nM],IC50 (ZR-75-1) [nM],Synergy (ZR-75-1),IC50 (T-47D*) [nM],Synergy (T-47D*),Synergy (Bcap-37),IC50 (Bcap-37) [nM],also measured
COc1cccc2c1C(=O)c1c(O)c3c(c(O)c1C2=O)C[C@@](O)(C(=O)CO)C[C@@H]3O[C@H]1C[C@H](N)[C@H](O)[C@H](C)O1 [Doxorubicin],240,S (Any combination with a CI value<0.70 at a Fa value between 0.25 and 0.75 was defined as positive synergy),100,S (Any combination with a CI value<0.70 at a Fa value between 0.25 and 0.75 was defined as positive synergy),170,S (Any combination with a CI value<0.70 at a Fa value between 0.25 and 0.75 was defined as positive synergy),240,S (Any combination with a CI value<0.70 at a Fa value between 0.25 and 0.75 was defined as positive synergy),180,S (Any combination with a CI value<0.70 at a Fa value between 0.25 and 0.75 was defined as positive synergy),30,120,S (Any combination with a CI value<0.70 at a Fa value between 0.25 and 0.75 was defined as positive synergy),730,130,S (Any combination with a CI value<0.70 at a Fa value between 0.25 and 0.75 was defined as positive synergy),150,S (Any combination with a CI value<0.70 at a Fa value between 0.25 and 0.75 was defined as positive synergy),S (Any combination with a CI value<0.70 at a Fa value between 0.25 and 0.75 was defined as positive synergy),170,Synergy (MDA-MB-231): S (Any combination with a CI value<0.70 at a Fa value between 0.25 and 0.75 was defined as positive synergy); IC50 (MDA-MB-436): 170 nM; Synergy (BT474): S (Any combination with a CI value<0.70 at a Fa value between 0.25 and 0.75 was defined as positive synergy); IC50 (BT474): 190 nM; IC50 (Hs578T): 1560 nM; Synergy (Hs578T): S (Any combination with a CI value<0.70 at a Fa value between 0.25 and 0.75 was defined as positive synergy); IC50 (MCF-7): 820 nM; IC50 (MDA-MB-453): 220 nM
CS(=O)(=O)N1CCN(Cc2cc3nc(-c4cccc5[nH]ncc45)nc(N4CCOCC4)c3s2)CC1 [GDC-0941],560,S (Any combination with a CI value<0.70 at a Fa value between 0.25 and 0.75 was defined as positive synergy),2930,S (Any combination with a CI value<0.70 at a Fa value between 0.25 and 0.75 was defined as positive synergy),3270,S (Any combination with a CI value<0.70 at a Fa value between 0.25 and 0.75 was defined as positive synergy),2450,S (Any combination with a CI value<0.70 at a Fa value between 0.25 and 0.75 was defined as positive synergy),7440,S (Any combination with a CI value<0.70 at a Fa value between 0.25 and 0.75 was defined as positive synergy),1660,220,S (Any combination with a CI value<0.70 at a Fa value between 0.25 and 0.75 was defined as positive synergy),1690,210,S (Any combination with a CI value<0.70 at a Fa value between 0.25 and 0.75 was defined as positive synergy),620,S (Any combination with a CI value<0.70 at a Fa value between 0.25 and 0.75 was defined as positive synergy),S (Any combination with a CI value<0.70 at a Fa value between 0.25 and 0.75 was defined as positive synergy),2480,"cytotoxicity of the combination with Compound A [1]: synergistic cytotoxicity; Synergy (MDA-MB-361; MDA-MB-361, combination with cmpd A, Chou-Talalay CI): S (Any combination with a CI value<0.70 at a Fa value between 0.25 and 0.75 was defined as positive synergy); Synergy (MDA-MB-231): S (Any combination with a CI value<0.70 at a Fa value between 0.25 and 0.75 was defined as positive synergy); IC50 (MDA-MB-436): 3270 nM; Synergy (MDA-MB-436; MDA-MB-436, combination with cmpd A, Chou-Talalay CI): S (Any combination with a CI value<0.70 at a Fa value between 0.25 and 0.75 was defined as positive synergy); Synergy (BT474): S (Any combination with a CI value<0.70 at a Fa value between 0.25 and 0.75 was defined as positive synergy); IC50 (BT474): 90 nM; IC50 (Hs578T): 1110 nM; Synergy (Hs578T): S (Any combination with a CI value<0.70 at a Fa value between 0.25 and 0.75 was defined as positive synergy); IC50 (MCF-7): 430 nM; Synergy (MCF-7): S (Any combination with a CI value<0.70 at a Fa value between 0.25 and 0.75 was defined as positive synergy); IC50 (MDA-MB-453): 290 nM; Synergy (MDA-MB-453): S (Any combination with a CI value<0.70 at a Fa value between 0.25 and 0.75 was defined as positive synergy)"
CS(=O)(=O)CCNCc1ccc(-c2ccc3ncnc(Nc4ccc(OCc5cccc(F)c5)c(Cl)c4)c3c2)o1 [Lapatinib],1010,S (Any combination with a CI value<0.70 at a Fa value between 0.25 and 0.75 was defined as positive synergy),5600,S (Any combination with a CI value<0.70 at a Fa value between 0.25 and 0.75 was defined as positive synergy),9310,S (Any combination with a CI value<0.70 at a Fa value between 0.25 and 0.75 was defined as positive synergy),5560,S (Any combination with a CI value<0.70 at a Fa value between 0.25 and 0.75 was defined as positive synergy),5050,S (Any combination with a CI value<0.70 at a Fa value between 0.25 and 0.75 was defined as positive synergy),6530,60,S (Any combination with a CI value<0.70 at a Fa value between 0.25 and 0.75 was defined as positive synergy),7170,2690,S (Any combination with a CI value<0.70 at a Fa value between 0.25 and 0.75 was defined as positive synergy),23300,S (Any combination with a CI value<0.70 at a Fa value between 0.25 and 0.75 was defined as positive synergy),S (Any combination with a CI value<0.70 at a Fa value between 0.25 and 0.75 was defined as positive synergy),10900,cytotoxicity of the combination with Compound A [1]: synergistic cytotoxicity; IC50 (MDA-MB-436): 9310 nM; Synergy (BT474): S (Any combination with a CI value<0.70 at a Fa value between 0.25 and 0.75 was defined as positive synergy); IC50 (BT474): 40 nM; IC50 (Hs578T): 5770 nM; Synergy (Hs578T): S (Any combination with a CI value<0.70 at a Fa value between 0.25 and 0.75 was defined as positive synergy); IC50 (MCF-7): 5780 nM; Synergy (MCF-7): S (Any combination with a CI value<0.70 at a Fa value between 0.25 and 0.75 was defined as positive synergy); IC50 (MDA-MB-453): 130 nM; Synergy (MDA-MB-453): S (Any combination with a CI value<0.70 at a Fa value between 0.25 and 0.75 was defined as positive synergy)
